{
  "source": "patent US10500222B2",
  "about": "“Compositions and methods relating to treatment of infection” (Wayne State University, priority 2015, dated 2019)",
  "key": {"[1]": {"tested_on": "P. aeruginosa KEI 1025", "experiment": "Bacterial growth and Minimum Inhibitory Concentration (MIC), strain KEI 1025", "format": "cell-based, Pseudomonas aeruginosa", "details": "for absorbance values of bacterial cultures: vs growth control"}, "[2]": {"tested_on": "neutrophils in the cornea, P. aeruginosa KEI 1025", "experiment": "Myeloperoxidase (MPO) assay, KEI 1025 infection", "format": "in vivo, C57BL/6 (B6) mice", "details": "pretreatment subconj. + IP, vs PBS", "experimental": "(§1) The left eyes of B6 mice (n=5/group/time) were injected with 5 μl of 2 μg/μl glycyrrhizin (GLY) (Sigma-Aldrich, St. Louis, Mo.) or PBS (control) subconjunctivally, one day before infection. Similar treatment was done using carbenoxolone (CBX) (Sigma-Aldrich, St. Louis, Mo.). All mice were injected intraperitoneally (IP) at 1 and 3 days p.i. with 100 μl of GLY (2 μg/μl) or CBX (1 μg/μl). PBS served as control for all these experiments. In a separate similar experiment mice were treated one day before infection with GLY subconjunctivally and injected intraperitoneally (i.p.) with GLY plus recombinant (r) HMGB1 (1 μg/100 μl) or GLY plus PBS. IP injections were similarly given at 1 and 3 days p.i. In an additional experiment, KEI 1025 infected B6 mice were treated with 5 μl of 2 μg/μl GLY subconjunctivally at 6 hours p.i. and injected intraperitoneally at 1 and 3 days p.i. with 100 μl of GLY (2 μg/μl).\n(§2) This assay was used to quantitate neutrophils in the cornea of GLY and PBS treated mice (n=5/group/time) infected with KEI 1025 or ATCC strain 19660. Individual corneas were removed at 3 and 5 days p.i. and homogenized in 1.0 ml of 50 mM phosphate buffer (pH 6.0) containing 0.5% HTAB. […] The change in absorbency was monitored at 460 nm for 5 min at 30 sec intervals. The slope of the line was determined for each sample and used to calculate units of MPO/cornea. […]"}, "[3]": {"tested_on": "P. aeruginosa KEI 1025", "experiment": "Quantification of viable bacteria (plate count), KEI 1025 infection", "format": "in vivo, C57BL/6 (B6) mice", "details": "vs PBS; for bacterial load (plate count): post treatment: subconj. 6 hours p.i. + IP 1 and 3 days p.i.; for bacterial load in the corneas (plate count): pretreatment subconj. + IP", "experimental": "as §1\n(§3) Mice were sacrificed at 3 and 5 days p.i. and KEI 1025 or ATCC strain 19660 infected corneas from GLY, CBX or PBS (or GLY+/−rHMGB1) treated B6 mice were harvested (n=5/group/time). Each cornea was homogenized in 1 ml of sterile saline (0.85% NaCl, pH 7.4) containing 0.25% BSA. A 100 μl of the corneal homogenate was serially diluted (1:10) in sterile saline containing 0.25% BSA. Selected dilutions were plated in triplicate on selective culture medium (Difco™ Pseudomonas Isolation Agar, BD Biosciences, Inc., Franklin Lakes, N.J.). Plates were incubated overnight at 37° C. and viable bacteria manually counted. Results are reported as log10 CFU/cornea±SEM."}, "[4]": {"tested_on": "P. aeruginosa ATCC strain 19660 infected cornea", "experiment": "Ocular response to bacterial infection (clinical score, slit lamp), strain 19660 keratitis", "format": "in vivo, C57BL/6 (B6) mice", "details": "pretreatment subconj. + IP, vs PBS", "source_text": "P. aeruginosa strains, KEI 1025, a non-cytotoxic clinical isolate strain expressing exoT and exoS, and not expressing exoU, described in Estrellas P S, Jr., et al., Curr Eye Res. 2000; 20:157-165 (obtained from Kresge Eye Institute, Detroit, Mich.), and a cytotoxic strain, 19660, expressing exoU, described in Finck-Barbancon V, et al., Mol Microbiol. 1997; 25:547-557; and Fleiszig S M, et al., Infect Immun. 1997; 65:579-586 (obtained from American Type Culture Collection, ATCC, Manassas, Va.), were grown in peptone tryptic soy broth (PTSB) medium in a rotary shaker water bath at 37° C. and 150 rpm for 18 h to an optical density (measured at 540 nm) between 1.3-1.8. Bacterial cultures were pelleted by centrifugation at 5,500 g for 10 min. Pellets were washed once with sterile saline, re-centrifuged, re-suspended and diluted in sterile saline. Anesthetized (using anhydrous ethyl ether) mice were placed beneath a stereoscopic microscope at 40× magnification. The left cornea was scarified with three 1-mm incisions using a sterile 25^5/8 gauge needle. The wounded corneal surface was topically treated with 5 μl containing 1×10^7 CFU/μl (KEI 1025) or 1×10^6 CFU/μl (ATCC strain 19660) of the P. aeruginosa suspension.\nAn established corneal disease grading scale, described in detail in Hazlett L D, et al., Invest Ophthalmol Vis Sci. 1987; 28:1978-1985, was used to assign a clinical score value to each infected eye at 1, 3 and 5 days post infection (p.i.). Clinical scores were designated as: 0=clear or slight opacity, partially or fully covering the pupil; +1=slight opacity, fully covering the anterior segment; +2=dense opacity, partially or fully covering the pupil; +3=dense opacity, covering the entire anterior segment; and +4=corneal perforation or phthisis. Clinical scores were used to statistically compare disease severity and were accompanied by photographs using a slit lamp (5 days p.i.) to confirm and illustrate the response.\nas §1, with “In an additional experiment, KEI 1025 infected B6 mice were treated with 5 μl of 2 μg/μl GLY subconjunctivally at 6 hours p.i. and injected intraperitoneally at 1 and 3 days p.i. with 100 μl of GLY (2 μg/μl).” left out"}, "[5]": {"tested_on": "neutrophils in the cornea, P. aeruginosa ATCC strain 19660", "experiment": "Myeloperoxidase (MPO) assay, strain 19660 infection", "format": "in vivo, C57BL/6 (B6) mice", "details": "vs PBS", "experimental": "as §1, §2"}, "[6]": {"tested_on": "P. aeruginosa ATCC strain 19660", "experiment": "Quantification of viable bacteria (plate count), strain 19660 infection", "format": "in vivo, C57BL/6 (B6) mice", "details": "vs PBS", "experimental": "as §1\nas §3, with “Selected dilutions were plated in triplicate on selective culture medium (Difco™ Pseudomonas Isolation Agar, BD Biosciences, Inc., Franklin Lakes, N.J.).” left out, “Results are reported as log10 CFU/cornea±SEM.” left out"}},
  "data": [
    {"smiles": "CC1(C)[C@@H](O[C@H]2O[C@H](C(=O)O)[C@@H](O)[C@H](O)[C@H]2O[C@@H]2O[C@H](C(=O)O)[C@@H](O)[C@H](O)[C@H]2O)CC[C@]2(C)[C@H]3C(=O)C=C4[C@@H]5C[C@@](C)(C(=O)O)CC[C@]5(C)CC[C@@]4(C)[C@]3(C)CC[C@@H]12", "note": "[GLY, glycyrrhizin]", "values": [
      {"measurement": "MIC50", "setting": "[1]; Pseudomonas aeruginosa, KEI1025, strain KEI 1025, 50% decrease in absorbance at 540 nm, 37° C., 18 h", "value": 20, "unit": "mg/mL"},
      {"measurement": "MIC90", "setting": "[1]; Pseudomonas aeruginosa, KEI1025, strain KEI 1025, 90% decrease in absorbance at 540 nm, 37° C., 18 h", "value": 40, "unit": "mg/mL"},
      {"measurement": "Minimum Inhibitory Concentration 50 (MIC50)", "setting": "[1]; non-cytotoxic strains", "value": 20, "unit": "milligrams/milliliter"},
      {"measurement": "absorbance values of bacterial cultures", "setting": "[1]; strain KEI 1025, grown with 20 mg/ml GLY", "value": "significantly reduced"},
      {"measurement": "absorbance values of bacterial cultures", "setting": "[1]; strain KEI 1025, grown with 40 mg/ml GLY", "value": "significantly reduced"},
      {"measurement": "neutrophils in cornea (MPO assay)", "setting": "[2]; 3 days p.i.", "value": "decreased neutrophils"},
      {"measurement": "neutrophils in cornea (MPO assay)", "setting": "[2]; 5 days p.i.", "value": "decreased neutrophils"},
      {"measurement": "bacterial load (plate count)", "setting": "[3]; 3 days p.i.", "value": "reduced significantly"},
      {"measurement": "bacterial load (plate count)", "setting": "[3]; 5 days p.i.", "value": "reduced significantly"},
      {"measurement": "bacterial load in the corneas (plate count)", "setting": "[3]; 3 days p.i.", "value": "reduced"},
      {"measurement": "bacterial load in the corneas (plate count)", "setting": "[3]; 5 days p.i.", "value": "reduced"},
      {"measurement": "clinical scores", "setting": "[4]; 1 day p.i.", "value": "not at 1 day p.i."},
      {"measurement": "clinical scores", "setting": "[4]; 3 days p.i.", "value": "reduced clinical scores that were significant"},
      {"measurement": "clinical scores", "setting": "[4]; 5 days p.i.", "value": "reduced clinical scores that were significant"},
      {"measurement": "disease/opacity, slit lamp photographs", "setting": "[4]; 5 days p.i.", "value": "less disease, reduced opacity"},
      {"measurement": "neutrophils in the cornea (MPO assay)", "setting": "[5]; 3 days p.i.", "value": "significant decrease in neutrophils"},
      {"measurement": "neutrophils in the cornea (MPO assay)", "setting": "[5]; 5 days p.i.", "value": "significant decrease in neutrophils"},
      {"measurement": "bacterial load (plate count)", "setting": "[6]; 3 days p.i.", "value": "significantly reduced"},
      {"measurement": "bacterial load (plate count)", "setting": "[6]; 5 days p.i.", "value": "significantly reduced"}
    ]}
  ]
}
